Results as given in patent US20260130395A1, “Water Dispersible Botanical Compositions” (Aquila Black Limited, priority 2021, published 2026).

Assays:
[1] = Stability of cannabinoid entourage and Vitamin E components of the powder concentrate by LCMSMS; type: physicochemical; settings: powder stored at 21-25° C.
Procedure: At each time period, 0.05 g of powder was dissolved in 10 ml-15 of ethanol, diluted to fall within the analytical range, and injected into the LCMSMS for analysis.

[2] = Stability of cannabinoid compounds and Vitamin E components in Beverage 1 (AB White) by LCMSMS; type: physicochemical

CC(=O)Oc1c(C)c(C)c2c(c1C)CCC(C)(CCC[C@H](C)CCC[C@H](C)CCCC(C)C)O2 (stereo partly drawn) [α-Tocopheryl acetate]
Stability of Vitamin Es in Powder Concentrate ([1]; 0 days): 2.15 mg/g powder | Stability of Vitamin Es in Powder Concentrate ([1]; 1 days): 2.19 mg/g powder | Stability of Vitamin Es in Powder Concentrate ([1]; 2 days): 2.11 mg/g powder | Stability of Vitamin Es in Powder Concentrate ([1]; 3 days): 2.18 mg/g powder | Stability of Vitamin Es in Powder Concentrate ([1]; 5 days): 2.24 mg/g powder | Stability of Vitamin Es in Powder Concentrate ([1]; 8 days): 2.23 mg/g powder | Stability of Vitamin Es in Powder Concentrate ([1]; 9 days): 2.09 mg/g powder | Stability of Vitamin Es in Powder Concentrate ([1]; 10 days): 2.09 mg/g powder | Stability of Vitamin Es in Powder Concentrate ([1]; 11 days): 2.20 mg/g powder | Stability of Vitamin Es in Powder Concentrate ([1]; 12 days): 2.17 mg/g powder | Stability of Vitamin Es in Powder Concentrate ([1]; 15 days): 2.24 mg/g powder | Stability of Vitamin Es in Powder Concentrate ([1]; 16 days): 2.15 mg/g powder | Stability of Vitamin Es in Powder Concentrate ([1]; 17 days): 2.13 mg/g powder | Stability of Vitamin Es in Powder Concentrate ([1]; 18 days): 2.10 mg/g powder | Stability of Vitamin Es in Powder Concentrate ([1]; 19 days): 2.21 mg/g powder | Stability of Vitamin Es in Powder Concentrate ([1]; 22 days): 2.11 mg/g powder | Stability of Vitamin Es in Powder Concentrate ([1]; 23 days): 2.16 mg/g powder | Stability of Vitamin Es in Powder Concentrate ([1]; 24 days): 2.09 mg/g powder | Stability of Vitamin Es in Powder Concentrate ([1]; 25 days): 2.24 mg/g powder | Stability of Vitamin Es in Powder Concentrate ([1]; 26 days): 2.10 mg/g powder | Stability of Vitamin Es in Powder Concentrate ([1]; 29 days): 2.21 mg/g powder | Stability of Vitamin Es in Powder Concentrate ([1]; 30 days): 2.08 mg/g powder | Stability of Vitamin Es in Powder Concentrate ([1]; 60 days): 2.15 mg/g powder | Stability of Vitamin Es in Powder Concentrate ([1]; 90 days): 2.24 mg/g powder | Stability of Vitamin Es in Powder Concentrate ([1]; 120 days): 2.17 mg/g powder | Stability of Vitamin Es in Powder Concentrate ([1]; 150 days): 2.18 mg/g powder | Stability of Vitamin Es in Powder Concentrate ([1]; 180 days): 2.20 mg/g powder | Stability of Vitamin Es in Powder Concentrate ([1]; 210 days): 2.15 mg/g powder | Stability of Vitamin Es in Powder Concentrate ([1]; 240 days): 2.23 mg/g powder | Stability of Vitamin Es in Powder Concentrate ([1]; 270 days): 2.13 mg/g powder | Stability of Vitamin Es in Powder Concentrate ([1]; 300 days): 2.09 mg/g powder | Stability of Vitamin Es in Powder Concentrate ([1]; 330 days): 2.15 mg/g powder | Stability of Vitamin Es in Powder Concentrate ([1]; 360 days): 2.12 mg/g powder | Stability of Vitamin Es in Powder Concentrate ([1]; 390 days): 2.21 mg/g powder | Stability of Vitamin Es in Powder Concentrate ([1]; 420 days): 2.21 mg/g powder | Stability of Vitamin Es in Powder Concentrate ([1]; 450 days): 2.07 mg/g powder | Stability of Vitamin Es in Powder Concentrate ([1]; 480 days): 2.10 mg/g powder | Stability of Vitamin Es in Powder Concentrate ([1]; 510 days): 2.15 mg/g powder | Stability of Vitamin Es in Powder Concentrate ([1]; 540 days): 2.21 mg/g powder | Stability of Vitamin Es in Powder Concentrate ([1]; 570 days): 2.13 mg/g powder | Stability of Vitamin Es in AB White ([2]; stored at 8° C., 0 days): 12.3 µg/mL | Stability of Vitamin Es in AB White ([2]; stored at 8° C., 1 days): 12.04 µg/mL | Stability of Vitamin Es in AB White ([2]; stored at 8° C., 2 days): 12.47 µg/mL | Stability of Vitamin Es in AB White ([2]; stored at 8° C., 3 days): 11.99 µg/mL | Stability of Vitamin Es in AB White ([2]; stored at 8° C., 5 days): 11.61 µg/mL | Stability of Vitamin Es in AB White ([2]; stored at 8° C., 8 days): 12.48 µg/mL | Stability of Vitamin Es in AB White ([2]; stored at 8° C., 9 days): 11.88 µg/mL | Stability of Vitamin Es in AB White ([2]; stored at 8° C., 10 days): 12.13 µg/mL | Stability of Vitamin Es in AB White ([2]; stored at 8° C., 11 days): 11.83 µg/mL | Stability of Vitamin Es in AB White ([2]; stored at 8° C., 12 days): 12.31 µg/mL | Stability of Vitamin Es in AB White ([2]; stored at 8° C., 15 days): 12.42 µg/mL | Stability of Vitamin Es in AB White ([2]; stored at 8° C., 16 days): 11.35 µg/mL | Stability of Vitamin Es in AB White ([2]; stored at 8° C., 17 days): 11.49 µg/mL | Stability of Vitamin Es in AB White ([2]; stored at 8° C., 18 days): 11.83 µg/mL | Stability of Vitamin Es in AB White ([2]; stored at 8° C., 19 days): 12.41 µg/mL | Stability of Vitamin Es in AB White ([2]; stored at 8° C., 22 days): 11.27 µg/mL | Stability of Vitamin Es in AB White ([2]; stored at 8° C., 23 days): 11.93 µg/mL | Stability of Vitamin Es in AB White ([2]; stored at 8° C., 24 days): 12.02 µg/mL | Stability of Vitamin Es in AB White ([2]; stored at 8° C., 25 days): 12.24 µg/mL | Stability of Vitamin Es in AB White ([2]; stored at 8° C., 26 days): 12.03 µg/mL | Stability of Vitamin Es in AB White ([2]; stored at 8° C., 29 days): 11.40 µg/mL | Stability of Vitamin Es in AB White ([2]; stored at 8° C., 30 days): 12.07 µg/mL | Stability of Vitamin Es in AB White ([2]; stored at 8° C., 60 days): 12.05 µg/mL | Stability of Vitamin Es in AB White ([2]; stored at 8° C., 90 days): 11.13 µg/mL | Stability of Vitamin Es in AB White ([2]; stored at 8° C., 120 days): 11.80 µg/mL | Stability of Vitamin Es in AB White ([2]; stored at 8° C., 150 days): 11.89 µg/mL | Stability of Vitamin Es in AB White ([2]; stored at 8° C., 180 days): 11.48 µg/mL | Stability of Vitamin Es in AB White ([2]; stored at 8° C., 210 days): 11.21 µg/mL | Stability of Vitamin Es in AB White ([2]; stored at 8° C., 240 days): 11.06 µg/mL | Stability of Vitamin Es in AB White ([2]; stored at 8° C., 270 days): 11.21 µg/mL | Stability of Vitamin Es in AB White ([2]; stored at 8° C., 300 days): 11.37 µg/mL | Stability of Vitamin Es in AB White ([2]; stored at 8° C., 330 days): 11.28 µg/mL | Stability of Vitamin Es in AB White ([2]; stored at 8° C., 360 days): 11.12 µg/mL | Stability of Vitamin Es in AB White ([2]; stored at 8° C., 390 days): 11.00 µg/mL | Stability of Vitamin Es in AB White ([2]; stored at 8° C., 420 days): 11.06 µg/mL | Stability of Vitamin Es in AB White ([2]; stored at 8° C., 450 days): 10.89 µg/mL | Stability of Vitamin Es in AB White ([2]; stored at 8° C., 480 days): 10.76 µg/mL | Stability of Vitamin Es in AB White ([2]; stored at 8° C., 510 days): 10.76 µg/mL | Stability of Vitamin Es in AB White ([2]; stored at 8° C., 540 days): 10.49 µg/mL | Stability of Vitamin Es in AB White ([2]; stored at 8° C., 570 days): 10.42 µg/mL | Stability of Vitamin Es in AB White ([2]; stored at 21-25° C., 0 days): 12.3 µg/mL | Stability of Vitamin Es in AB White ([2]; stored at 21-25° C., 1 days): 12.2 µg/mL | Stability of Vitamin Es in AB White ([2]; stored at 21-25° C., 2 days): 12.3 µg/mL | Stability of Vitamin Es in AB White ([2]; stored at 21-25° C., 3 days): 11.8 µg/mL | Stability of Vitamin Es in AB White ([2]; stored at 21-25° C., 5 days): 12.0 µg/mL | Stability of Vitamin Es in AB White ([2]; stored at 21-25° C., 8 days): 12.4 µg/mL | Stability of Vitamin Es in AB White ([2]; stored at 21-25° C., 9 days): 12.2 µg/mL | Stability of Vitamin Es in AB White ([2]; stored at 21-25° C., 10 days): 11.8 µg/mL | Stability of Vitamin Es in AB White ([2]; stored at 21-25° C., 11 days): 11.7 µg/mL | Stability of Vitamin Es in AB White ([2]; stored at 21-25° C., 12 days): 11.6 µg/mL | Stability of Vitamin Es in AB White ([2]; stored at 21-25° C., 15 days): 11.4 µg/mL | Stability of Vitamin Es in AB White ([2]; stored at 21-25° C., 16 days): 12.3 µg/mL | Stability of Vitamin Es in AB White ([2]; stored at 21-25° C., 17 days): 11.2 µg/mL | Stability of Vitamin Es in AB White ([2]; stored at 21-25° C., 18 days): 11.9 µg/mL | Stability of Vitamin Es in AB White ([2]; stored at 21-25° C., 19 days): 11.4 µg/mL | Stability of Vitamin Es in AB White ([2]; stored at 21-25° C., 22 days): 11.3 µg/mL | Stability of Vitamin Es in AB White ([2]; stored at 21-25° C., 23 days): 11.9 µg/mL | Stability of Vitamin Es in AB White ([2]; stored at 21-25° C., 24 days): 11.8 µg/mL | Stability of Vitamin Es in AB White ([2]; stored at 21-25° C., 25 days): 11.3 µg/mL | Stability of Vitamin Es in AB White ([2]; stored at 21-25° C., 26 days): 11.6 µg/mL | Stability of Vitamin Es in AB White ([2]; stored at 21-25° C., 29 days): 12.1 µg/mL | Stability of Vitamin Es in AB White ([2]; stored at 21-25° C., 30 days): 12.1 µg/mL | Stability of Vitamin Es in AB White ([2]; stored at 21-25° C., 60 days): 12.1 µg/mL | Stability of Vitamin Es in AB White ([2]; stored at 21-25° C., 90 days): 12.0 µg/mL | Stability of Vitamin Es in AB White ([2]; stored at 21-25° C., 120 days): 11.4 µg/mL | Stability of Vitamin Es in AB White ([2]; stored at 21-25° C., 150 days): 11.9 µg/mL | Stability of Vitamin Es in AB White ([2]; stored at 21-25° C., 180 days): 11.2 µg/mL | Stability of Vitamin Es in AB White ([2]; stored at 21-25° C., 210 days): 11.1 µg/mL | Stability of Vitamin Es in AB White ([2]; stored at 21-25° C., 240 days): 10.8 µg/mL | Stability of Vitamin Es in AB White ([2]; stored at 21-25° C., 270 days): 11.0 µg/mL | Stability of Vitamin Es in AB White ([2]; stored at 21-25° C., 300 days): 11.2 µg/mL | Stability of Vitamin Es in AB White ([2]; stored at 21-25° C., 330 days): 11.3 µg/mL | Stability of Vitamin Es in AB White ([2]; stored at 21-25° C., 360 days): 10.7 µg/mL | Stability of Vitamin Es in AB White ([2]; stored at 21-25° C., 390 days): 10.8 µg/mL | Stability of Vitamin Es in AB White ([2]; stored at 21-25° C., 420 days): 10.9 µg/mL | Stability of Vitamin Es in AB White ([2]; stored at 21-25° C., 450 days): 10.6 µg/mL | Stability of Vitamin Es in AB White ([2]; stored at 21-25° C., 480 days): 10.3 µg/mL | Stability of Vitamin Es in AB White ([2]; stored at 21-25° C., 510 days): 10.4 µg/mL | Stability of Vitamin Es in AB White ([2]; stored at 21-25° C., 540 days): 10.4 µg/mL | Stability of Vitamin Es in AB White ([2]; stored at 21-25° C., 570 days): 10.2 µg/mL
